According to ChEMBL document CHEMBL6127128, “Discovery of the First-in-Class Dual-Target ROCK/HDAC Inhibitor with Potent Antitumor Efficacy in Vivo That Trigger Antitumor Immunity” (J Med Chem, 2024):
≈ marks a conversion by molar mass, not a printed value. Calls of active or inactive are those of the source. The calls are words filed in the database; no cut-off is given here.

Legend:
[1] = Toxicity against Balb/c mouse implanted with mouse 4T1 cells assessed as effect on morphological changes in kidneys at 25 to 50 mg/kg, po administered daily for 15 days by Hematoxylin-Eosin staining based analysis; type: organism-based; conditions: in vivo, 360 h, dose 25-50 mg/kg, time 15 day
[2] = Oral bioavailability in Balb/c mouse at 50 mg/kg measured for 24 hrs by LC-MS/MS analysis; type: ADME, organism-based; conditions: in vivo
[3] = Aqueous solubility of the compound in aqueous buffer at pH 7.4; type: physicochemical
Histone deacetylase 5 = Histone deacetylase 5 (Homo sapiens, UniProt Q9UQL6); assay: Inhibition of HDAC5 (unknown origin) using Ac-Leu-Gly-Lys(tfa)-AMC as substrate preincubated for 5 mins followed by substrate addition for 30 mins and measured following trypsin addition for 30 mins by fluorescence based analysis
[4] = Toxicity against Balb/c mouse implanted with mouse 4T1 cells assessed as effect on morphological changes in lung at 25 to 50 mg/kg, po administered daily for 15 days by Hematoxylin-Eosin staining based analysis; type: organism-based; conditions: in vivo, 360 h, dose 25-50 mg/kg, time 15 day
[5] = Half-life in Balb/c mouse at 50 mg/kg, po measured for 24 hrs by LC-MS/MS analysis; type: ADME, organism-based; conditions: in vivo
4T1 [6] = assay: Antitumor immunity against mouse 4T1 cells implanted in Balb/c mouse assessed as increase in CD4+ T cells in tumor tissue at 50 mg/kg, po administered daily for 15 days by flow cytometry relative to SAHA; type: functional; conditions: time 15 day
4T1 [7] = assay: Antitumor immunity against mouse 4T1 cells implanted in Balb/c mouse assessed as increase in CD4+ T cells in tumor tissue at 25 mg/kg, po administered daily for 15 days by flow cytometry; type: functional, organism-based; conditions: time 15.0 day
4T1 [8] = assay: Antitumor immunity against mouse 4T1 cells implanted in Balb/c mouse assessed as increase in CD86+ dendritic cells in tumor tissue at 50 mg/kg, po administered daily for 15 days by immunohistochemistry relative to SAHA; type: functional; conditions: time 15 day
MDA-MB-231 = assay: Induction of immunogenic cell death-associated DAMP release in human MDA-MB-231 cells assessed as decrease in HMGB1 expression level at 1 to 10 uM incubated for 24 hrs by western blot analysis; type: functional, cell-based; conditions: dose 1-10 µM
[9] = Toxicity against Balb/c mouse implanted with mouse 4T1 cells assessed as effect on morphological changes in heart at 25 to 50 mg/kg, po administered daily for 15 days by Hematoxylin-Eosin staining based analysis; type: organism-based; conditions: in vivo, 360 h, dose 25-50 mg/kg, time 15 day
Histone deacetylase 9 = Histone deacetylase 9 (Homo sapiens, UniProt Q9UKV0); assay: Inhibition of HDAC9 (unknown origin) using Ac-Leu-Gly-Lys(tfa)-AMC as substrate preincubated for 5 mins followed by substrate addition for 30 mins and measured following trypsin addition for 30 mins by fluorescence based analysis
4T1 [10] = assay: Antitumor immunity against mouse 4T1 cells implanted in Balb/c mouse assessed as increase in CD8+ T cells in tumor tissue at 50 mg/kg, po administered daily for 15 days by flow cytometry relative to SAHA; type: functional; conditions: time 15 day
4T1 [11] = assay: Antitumor activity against mouse 4T1 cells implanted in Balb/c mouse assessed as tumor weight at 50 mg/kg, po administered daily for 15 days; type: functional; conditions: time 15 day
Mus musculus = assay: Induction of immunogenic cell death-associated DAMP release in tumor of Balb/c mouse implanted with mouse 4T1 cells assessed as increase in CRT expression at 25 to 50 mg/kg, po administered daily for 15 days by immunofluorescence analysis; type: functional, organism-based; conditions: dose 25-50 mg/kg, time 15.0 day
[12] = molecular target: Rho-associated protein kinase 2 (Homo sapiens, UniProt O75116); assay: Inhibition of N-terminal GST-tagged human recombinant wild type ROCK2 (1 to 553 residues) expressed in baculovirus-infected Sf21 cells by HTRF KinEASE assay
4T1 [13] = assay: Antitumor immunity against mouse 4T1 cells implanted in Balb/c mouse assessed as increase in CD86+ dendritic cells in tumor tissue at 25 mg/kg, po administered daily for 15 days by immunohistochemistry; type: functional, organism-based; conditions: time 15.0 day
4T1 [14] = assay: animal or person; type: functional; conditions: Mus musculus, 4T1, 360 h, route po, time 15 day, read-out: TGI
Description: Antitumor activity against mouse 4T1 cells implanted in Balb/c mouse assessed as inhibition of tumor growth rate at 50 mg/kg, po administered daily for 15 days

4T1 [15] = assay: Antitumor immunity against mouse 4T1 cells implanted in Balb/c mouse assessed as increase in CD40+ dendritic cells in tumor tissue at 50 mg/kg, po administered daily for 15 days by immunohistochemistry relative to SAHA; type: functional; conditions: time 15 day
[16] = molecular target: T1, Protein deacetylase HDAC6 (Homo sapiens, UniProt Q9UBN7); assay: Inhibition of HDAC6 (unknown origin) using Ac-Leu-Gly-Lys(Ac)-AMC as substrate preincubated for 5 mins followed by substrate addition for 30 mins and measured following trypsin addition for 30 mins by fluorescence based analysis
T1 sequence (Q9UBN7 whole entry): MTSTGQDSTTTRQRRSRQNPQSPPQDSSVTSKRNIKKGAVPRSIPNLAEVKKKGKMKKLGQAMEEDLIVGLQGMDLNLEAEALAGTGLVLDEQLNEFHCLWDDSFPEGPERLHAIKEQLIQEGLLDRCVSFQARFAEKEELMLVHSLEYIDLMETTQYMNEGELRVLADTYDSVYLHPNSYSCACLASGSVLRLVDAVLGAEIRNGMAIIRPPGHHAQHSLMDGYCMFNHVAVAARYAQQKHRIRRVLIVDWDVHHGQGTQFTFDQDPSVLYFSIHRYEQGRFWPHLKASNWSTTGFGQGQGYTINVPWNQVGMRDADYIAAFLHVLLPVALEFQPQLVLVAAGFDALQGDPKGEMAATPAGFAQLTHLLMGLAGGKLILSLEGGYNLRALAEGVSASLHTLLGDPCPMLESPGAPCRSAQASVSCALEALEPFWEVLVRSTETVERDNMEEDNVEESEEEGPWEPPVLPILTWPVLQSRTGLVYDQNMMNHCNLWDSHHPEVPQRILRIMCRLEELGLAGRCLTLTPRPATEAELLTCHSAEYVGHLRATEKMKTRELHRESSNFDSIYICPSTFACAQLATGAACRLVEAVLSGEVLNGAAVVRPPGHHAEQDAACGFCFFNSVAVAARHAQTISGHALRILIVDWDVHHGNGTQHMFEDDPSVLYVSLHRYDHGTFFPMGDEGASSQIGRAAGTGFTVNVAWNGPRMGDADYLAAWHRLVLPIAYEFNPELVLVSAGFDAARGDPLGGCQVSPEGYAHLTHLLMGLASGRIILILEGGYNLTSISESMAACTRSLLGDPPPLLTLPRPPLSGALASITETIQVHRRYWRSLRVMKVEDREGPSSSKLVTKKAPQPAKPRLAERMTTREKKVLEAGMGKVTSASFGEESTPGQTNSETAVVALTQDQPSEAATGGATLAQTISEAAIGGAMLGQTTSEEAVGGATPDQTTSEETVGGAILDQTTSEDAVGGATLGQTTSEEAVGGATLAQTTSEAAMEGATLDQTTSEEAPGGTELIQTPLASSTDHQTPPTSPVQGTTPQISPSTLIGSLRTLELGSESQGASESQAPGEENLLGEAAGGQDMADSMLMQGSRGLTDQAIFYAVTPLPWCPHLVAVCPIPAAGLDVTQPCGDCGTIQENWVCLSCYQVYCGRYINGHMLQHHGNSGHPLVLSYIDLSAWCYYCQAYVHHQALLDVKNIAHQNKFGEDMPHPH

Sequence of Histone deacetylase 9 (Q9UKV0 whole entry): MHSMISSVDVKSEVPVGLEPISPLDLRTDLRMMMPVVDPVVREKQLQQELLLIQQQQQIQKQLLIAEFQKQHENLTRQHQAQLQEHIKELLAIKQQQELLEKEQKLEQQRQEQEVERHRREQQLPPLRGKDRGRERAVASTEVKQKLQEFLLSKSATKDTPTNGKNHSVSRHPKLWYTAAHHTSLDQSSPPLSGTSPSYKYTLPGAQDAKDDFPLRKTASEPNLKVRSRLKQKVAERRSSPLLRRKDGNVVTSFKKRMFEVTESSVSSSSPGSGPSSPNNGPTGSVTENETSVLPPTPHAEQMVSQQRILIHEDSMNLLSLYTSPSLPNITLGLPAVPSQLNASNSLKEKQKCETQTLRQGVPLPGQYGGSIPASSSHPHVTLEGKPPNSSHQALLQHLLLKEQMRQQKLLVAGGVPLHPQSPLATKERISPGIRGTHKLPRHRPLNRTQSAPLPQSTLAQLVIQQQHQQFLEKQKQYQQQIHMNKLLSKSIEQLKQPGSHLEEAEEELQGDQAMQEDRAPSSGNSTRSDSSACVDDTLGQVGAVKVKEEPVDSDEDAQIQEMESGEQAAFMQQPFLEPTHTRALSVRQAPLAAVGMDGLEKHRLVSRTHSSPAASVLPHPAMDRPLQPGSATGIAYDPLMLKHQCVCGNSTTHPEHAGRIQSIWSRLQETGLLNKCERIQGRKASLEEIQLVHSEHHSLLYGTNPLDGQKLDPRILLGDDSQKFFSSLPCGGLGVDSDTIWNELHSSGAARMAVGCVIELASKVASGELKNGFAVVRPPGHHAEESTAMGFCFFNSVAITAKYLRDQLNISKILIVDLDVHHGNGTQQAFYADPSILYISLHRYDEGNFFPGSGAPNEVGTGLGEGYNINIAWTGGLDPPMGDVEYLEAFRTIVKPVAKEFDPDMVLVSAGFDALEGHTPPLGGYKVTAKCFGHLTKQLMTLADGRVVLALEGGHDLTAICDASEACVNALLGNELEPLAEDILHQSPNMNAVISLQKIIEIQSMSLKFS
Sequence of Rho-associated protein kinase 2 (O75116 whole entry, the tested form may be a part): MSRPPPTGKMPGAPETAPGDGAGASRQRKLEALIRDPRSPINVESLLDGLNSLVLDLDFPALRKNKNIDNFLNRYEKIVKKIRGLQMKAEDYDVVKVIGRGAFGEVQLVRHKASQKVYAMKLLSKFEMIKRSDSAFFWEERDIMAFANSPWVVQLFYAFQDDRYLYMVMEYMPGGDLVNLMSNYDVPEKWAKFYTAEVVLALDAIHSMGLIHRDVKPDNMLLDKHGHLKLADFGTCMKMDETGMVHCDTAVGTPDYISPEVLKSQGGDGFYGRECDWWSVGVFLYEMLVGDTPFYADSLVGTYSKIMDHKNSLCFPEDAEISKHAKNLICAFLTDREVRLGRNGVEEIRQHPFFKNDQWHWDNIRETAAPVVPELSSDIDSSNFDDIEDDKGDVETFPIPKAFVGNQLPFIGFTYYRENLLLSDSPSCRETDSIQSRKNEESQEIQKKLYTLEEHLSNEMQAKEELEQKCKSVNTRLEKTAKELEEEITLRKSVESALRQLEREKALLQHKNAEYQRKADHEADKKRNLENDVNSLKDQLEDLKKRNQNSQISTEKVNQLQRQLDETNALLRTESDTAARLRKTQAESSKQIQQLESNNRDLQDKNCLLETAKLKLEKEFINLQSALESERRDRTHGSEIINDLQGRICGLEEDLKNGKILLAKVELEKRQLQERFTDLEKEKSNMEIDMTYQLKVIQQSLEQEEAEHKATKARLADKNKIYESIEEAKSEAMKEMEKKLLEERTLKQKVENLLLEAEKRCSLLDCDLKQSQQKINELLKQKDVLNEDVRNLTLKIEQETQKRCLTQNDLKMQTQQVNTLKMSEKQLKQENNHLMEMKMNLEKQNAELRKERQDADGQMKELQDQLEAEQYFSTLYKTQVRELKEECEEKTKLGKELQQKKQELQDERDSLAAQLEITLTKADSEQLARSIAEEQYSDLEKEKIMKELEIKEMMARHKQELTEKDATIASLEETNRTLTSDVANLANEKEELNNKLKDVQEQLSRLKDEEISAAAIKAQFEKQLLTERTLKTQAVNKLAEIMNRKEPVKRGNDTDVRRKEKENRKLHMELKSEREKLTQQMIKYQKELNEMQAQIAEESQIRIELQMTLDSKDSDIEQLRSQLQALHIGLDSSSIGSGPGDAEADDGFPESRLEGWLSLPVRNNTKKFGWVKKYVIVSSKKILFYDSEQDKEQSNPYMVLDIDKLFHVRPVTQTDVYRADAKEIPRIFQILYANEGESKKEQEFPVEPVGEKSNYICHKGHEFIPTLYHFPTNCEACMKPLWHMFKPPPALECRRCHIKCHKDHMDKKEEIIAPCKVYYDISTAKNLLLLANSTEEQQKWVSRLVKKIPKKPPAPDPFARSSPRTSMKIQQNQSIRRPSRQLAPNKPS
Sequence of Histone deacetylase 5 (Q9UQL6 whole entry): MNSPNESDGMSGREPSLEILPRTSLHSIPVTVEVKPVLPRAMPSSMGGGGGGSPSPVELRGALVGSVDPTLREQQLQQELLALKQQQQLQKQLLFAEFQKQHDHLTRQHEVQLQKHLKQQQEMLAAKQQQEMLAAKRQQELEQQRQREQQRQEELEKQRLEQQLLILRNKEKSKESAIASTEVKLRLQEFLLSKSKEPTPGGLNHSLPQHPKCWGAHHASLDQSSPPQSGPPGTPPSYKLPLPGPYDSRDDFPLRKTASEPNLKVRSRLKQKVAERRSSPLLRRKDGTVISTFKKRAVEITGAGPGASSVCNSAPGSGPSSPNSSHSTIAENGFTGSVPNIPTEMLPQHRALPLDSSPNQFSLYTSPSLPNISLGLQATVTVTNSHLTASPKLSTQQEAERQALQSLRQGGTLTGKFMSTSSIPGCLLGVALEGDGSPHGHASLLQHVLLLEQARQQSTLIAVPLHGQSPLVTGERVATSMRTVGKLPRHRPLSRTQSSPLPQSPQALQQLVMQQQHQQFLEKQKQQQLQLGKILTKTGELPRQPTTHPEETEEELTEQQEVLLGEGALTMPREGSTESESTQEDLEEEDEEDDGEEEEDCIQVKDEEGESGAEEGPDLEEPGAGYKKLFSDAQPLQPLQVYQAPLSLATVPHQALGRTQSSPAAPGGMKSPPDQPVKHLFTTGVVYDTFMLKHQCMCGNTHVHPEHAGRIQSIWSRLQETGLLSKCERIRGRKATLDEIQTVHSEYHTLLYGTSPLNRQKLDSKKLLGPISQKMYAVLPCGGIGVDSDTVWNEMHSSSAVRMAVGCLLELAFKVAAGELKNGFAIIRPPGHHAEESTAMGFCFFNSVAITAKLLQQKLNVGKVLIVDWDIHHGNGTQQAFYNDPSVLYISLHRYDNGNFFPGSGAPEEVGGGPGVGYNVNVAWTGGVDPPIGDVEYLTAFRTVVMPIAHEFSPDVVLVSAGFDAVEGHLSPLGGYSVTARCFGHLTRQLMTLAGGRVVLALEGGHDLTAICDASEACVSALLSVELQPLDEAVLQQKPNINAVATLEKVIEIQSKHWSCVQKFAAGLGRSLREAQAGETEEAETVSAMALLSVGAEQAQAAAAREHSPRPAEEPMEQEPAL

bioavailability [2]: 0.13% | solubility [3]: 0.695 µg/mL (≈ 1.8 µM) | IC50 (Histone deacetylase 5): > 10000 nM | half-life [5]: 12.2 h | IC50 (Histone deacetylase 9): > 10000 nM | IC50 [12]: 255 nM | IC50 [16]: 0.41 nM
Structure (SMILES): O=C(CCCCCCNC(=O)c1cc2cc(-c3cn[nH]c3)ccc2s1)NO
Activity [1]: Non-Toxic | Activity [4]: Non-Toxic | fold change (FC) (4T1 [6]): 1.82 | Activity (4T1 [7]): Active | fold change (FC) (4T1 [8]): 1.82 | Activity (MDA-MB-231): Active | Activity [9]: Non-Toxic | fold change (FC) (4T1 [10]): 1.21 | Activity (4T1 [11]): 0.16 g | Activity (Mus musculus): Active | Activity (4T1 [13]): Active | inhibition in vivo at 50 mg/kg (4T1 [14]): 69.4% | fold change (FC) (4T1 [15]): 2.3
